Test results taken from PubChem BioAssay (NCI).
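Here, GI50 denotes the concentration required for 50% inhibition of growth. TGI: concentration producing complete growth inhibition.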 Where a SMILES comes first, the peptide text is derived from it. [ ]: non-standard residue; d: D form. The star is where a group is joined. Dolaproine = CO[C@@H]([C@@H]1CCCN1)[C@@H](C)C(=O)O; Dil = CC[C@H](C)[C@H](NC)[C@@H](CC(=O)O)OC; X2 = C[C@@H](N*)[C@@H](O)c1ccccc1; NMeV = CN[C@H](C(=O)O)C(C)C

Experiments:
Assay in all cases: DTP human tumour cell line panel, 384-well format
CCRF-CEM leukemia = tested on: CCRF-CEM leukemia
SR leukemia = tested on: SR leukemia
SF-268 CNS = tested on: SF-268 CNS
HCT-116 colon = tested on: HCT-116 colon
SF-295 CNS = tested on: SF-295 CNS
A498 renal = tested on: A498 renal
MDA-MB-435 melanoma = tested on: MDA-MB-435 melanoma
OVCAR-5 ovarian = tested on: OVCAR-5 ovarian
MDA-MB-231 breast = tested on: MDA-MB-231 breast
LOX IMVI melanoma = tested on: LOX IMVI melanoma
RPMI-8226 leukemia = tested on: RPMI-8226 leukemia
MALME-3M melanoma = tested on: MALME-3M melanoma
SK-MEL-2 melanoma = tested on: SK-MEL-2 melanoma
KM12 colon = tested on: KM12 colon
RXF 393 renal = tested on: RXF 393 renal
SNB-19 CNS = tested on: SNB-19 CNS
NCI-H522 lung = tested on: NCI-H522 lung
MDA-MB-468 breast = tested on: MDA-MB-468 breast
SW-620 colon = tested on: SW-620 colon
IGROV1 ovarian = tested on: IGROV1 ovarian
MOLT-4 leukemia = tested on: MOLT-4 leukemia
UO-31 renal = tested on: UO-31 renal
OVCAR-3 ovarian = tested on: OVCAR-3 ovarian
K-562 leukemia = tested on: K-562 leukemia
COLO 205 colon = tested on: COLO 205 colon
HT29 colon = tested on: HT29 colon
HOP-62 NSCLC = tested on: HOP-62 NSCLC
HL-60(TB) leukemia = tested on: HL-60(TB) leukemia
UACC-257 melanoma = tested on: UACC-257 melanoma
BT-549 breast = tested on: BT-549 breast
OVCAR-8 ovarian = tested on: OVCAR-8 ovarian
MCF7 breast = tested on: MCF7 breast
ACHN renal = tested on: ACHN renal
A549 NSCLC = tested on: A549 NSCLC
NCI-H23 lung = tested on: NCI-H23 lung
SK-OV-3 ovarian = tested on: SK-OV-3 ovarian
SN12C renal = tested on: SN12C renal
TK-10 renal = tested on: TK-10 renal
UACC-62 melanoma = tested on: UACC-62 melanoma
NCI-H460 NSCLC = tested on: NCI-H460 NSCLC
DU-145 prostate = tested on: DU-145 prostate
HCC-2998 colon = tested on: HCC-2998 colon
SF-539 CNS = tested on: SF-539 CNS
SK-MEL-5 melanoma = tested on: SK-MEL-5 melanoma
OVCAR-4 ovarian = tested on: OVCAR-4 ovarian
T-47D breast = tested on: T-47D breast
786-0 renal = tested on: 786-0 renal
NCI-H322M lung = tested on: NCI-H322M lung
U251 glioblastoma = tested on: U251 glioblastoma
NCI-H226 lung = tested on: NCI-H226 lung
M14 melanoma = tested on: M14 melanoma
HOP-92 NSCLC = tested on: HOP-92 NSCLC
NCI/ADR-RES ovarian = tested on: NCI/ADR-RES ovarian
CAKI-1 renal = tested on: CAKI-1 renal
HCT-15 colon = tested on: HCT-15 colon

`CC[C@H](C)[C@@H]([C@@H](CC(=O)N1CCC[C@H]1[C@H](OC)[C@@H](C)C(=O)N[C@H](C)[C@@H](O)c1ccccc1)OC)N(C)C(=O)[C@@H](NC(=O)[C@@H](NC)C(C)C)C(C)C` (H-[NMeV]V[Dil][Dolaproine]-X2) showed a GI50 (CCRF-CEM leukemia) of under 10 nM, a TGI (CCRF-CEM leukemia) of under 10 nM and a GI50 (SR leukemia) of under 10 nM. The TGI (SR leukemia) was under 10 nM, the GI50 (SF-268 CNS) was under 10 nM and the TGI (SF-268 CNS) was under 10 nM. It also gave a GI50 (HCT-116 colon) of under 10 nM, a TGI (HCT-116 colon) of under 10 nM and a GI50 (SF-295 CNS) of under 10 nM. The TGI (SF-295 CNS) was under 10 nM, the GI50 (A498 renal) was under 10 nM and the TGI (A498 renal) was 11.2 nM. It also gave a GI50 (MDA-MB-435 melanoma) of under 10 nM, a TGI (MDA-MB-435 melanoma) of under 10 nM and a GI50 (OVCAR-5 ovarian) of under 10 nM. For the same molecule, the TGI (OVCAR-5 ovarian) was over 100000 nM, the GI50 (MDA-MB-231 breast) was under 10 nM and the TGI (MDA-MB-231 breast) was under 10 nM. For the same molecule, the GI50 (LOX IMVI melanoma) was under 10 nM, the TGI (LOX IMVI melanoma) was under 10 nM and the GI50 (RPMI-8226 leukemia) was under 10 nM. For the same molecule, the TGI (RPMI-8226 leukemia) was under 10 nM, the GI50 (MALME-3M melanoma) was under 10 nM and the TGI (MALME-3M melanoma) was under 10 nM. It also gave a GI50 (SK-MEL-2 melanoma) of under 10 nM, a TGI (SK-MEL-2 melanoma) of under 10 nM and a GI50 (KM12 colon) of under 10 nM. For the same molecule, the TGI (KM12 colon) was under 10 nM, the GI50 (RXF 393 renal) was under 10 nM and the TGI (RXF 393 renal) was under 10 nM. The GI50 (SNB-19 CNS) was under 10 nM, the TGI (SNB-19 CNS) was under 10 nM and the GI50 (NCI-H522 lung) was under 10 nM. It also gave a TGI (NCI-H522 lung) of under 10 nM, a GI50 (MDA-MB-468 breast) of under 10 nM and a TGI (MDA-MB-468 breast) of under 10 nM. The GI50 (SW-620 colon) was under 10 nM, the TGI (SW-620 colon) was over 100000 nM and the GI50 (IGROV1 ovarian) was under 10 nM. The TGI (IGROV1 ovarian) was 91.6 nM, the GI50 (MOLT-4 leukemia) was under 10 nM and the TGI (MOLT-4 leukemia) was under 10 nM. For the same molecule, the GI50 (UO-31 renal) was under 10 nM, the TGI (UO-31 renal) was over 100000 nM and the GI50 (OVCAR-3 ovarian) was under 10 nM. The TGI (OVCAR-3 ovarian) was under 10 nM, the GI50 (K-562 leukemia) was under 10 nM and the TGI (K-562 leukemia) was under 10 nM. For the same molecule, the GI50 (COLO 205 colon) was under 10 nM, the TGI (COLO 205 colon) was under 10 nM and the GI50 (HT29 colon) was under 10 nM. For the same molecule, the TGI (HT29 colon) was under 10 nM, the GI50 (HOP-62 NSCLC) was under 10 nM and the TGI (HOP-62 NSCLC) was 30.4 nM. For the same molecule, the GI50 (HL-60(TB) leukemia) was under 10 nM, the TGI (HL-60(TB) leukemia) was under 10 nM and the GI50 (UACC-257 melanoma) was under 10 nM. It also gave a TGI (UACC-257 melanoma) of 12700 nM, a GI50 (BT-549 breast) of under 10 nM and a TGI (BT-549 breast) of under 10 nM. It also gave a GI50 (OVCAR-8 ovarian) of under 10 nM, a TGI (OVCAR-8 ovarian) of under 10 nM and a GI50 (MCF7 breast) of under 10 nM. The TGI (MCF7 breast) was 121 nM, the GI50 (ACHN renal) was under 10 nM and the TGI (ACHN renal) was over 100000 nM. The GI50 (A549 NSCLC) was under 10 nM, the TGI (A549 NSCLC) was under 10 nM and the GI50 (NCI-H23 lung) was under 10 nM. It also gave a TGI (NCI-H23 lung) of under 10 nM, a GI50 (SK-OV-3 ovarian) of under 10 nM and a TGI (SK-OV-3 ovarian) of under 10 nM. For the same molecule, the GI50 (SN12C renal) was under 10 nM, the TGI (SN12C renal) was over 100000 nM and the GI50 (TK-10 renal) was under 10 nM. It also gave a TGI (TK-10 renal) of over 100000 nM, a GI50 (UACC-62 melanoma) of under 10 nM and a TGI (UACC-62 melanoma) of under 10 nM. It also gave a GI50 (NCI-H460 NSCLC) of under 10 nM, a TGI (NCI-H460 NSCLC) of under 10 nM and a GI50 (DU-145 prostate) of under 10 nM. For the same molecule, the TGI (DU-145 prostate) was under 10 nM, the GI50 (HCC-2998 colon) was under 10 nM and the TGI (HCC-2998 colon) was under 10 nM. For the same molecule, the GI50 (SF-539 CNS) was under 10 nM, the TGI (SF-539 CNS) was under 10 nM and the GI50 (SK-MEL-5 melanoma) was under 10 nM. The TGI (SK-MEL-5 melanoma) was under 10 nM, the GI50 (OVCAR-4 ovarian) was under 10 nM and the TGI (OVCAR-4 ovarian) was 24300 nM. The GI50 (T-47D breast) was under 10 nM, the TGI (T-47D breast) was over 100000 nM and the GI50 ([…]-0 renal) was under 10 nM. For the same molecule, the TGI (786-0 renal) was under 10 nM, the GI50 (NCI-H322M lung) was under 10 nM and the TGI (NCI-H322M lung) was over 100000 nM. The GI50 (U251 glioblastoma) was under 10 nM, the TGI (U251 glioblastoma) was under 10 nM and the GI50 (NCI-H226 lung) was under 10 nM. For the same molecule, the TGI (NCI-H226 lung) was under 10 nM, the GI50 (M14 melanoma) was under 10 nM and the TGI (M14 melanoma) was under 10 nM. For the same molecule, the GI50 (HOP-92 NSCLC) was under 10 nM, the TGI (HOP-92 NSCLC) was under 10 nM and the GI50 (NCI/ADR-RES ovarian) was 105 nM. It also gave a TGI (NCI/ADR-RES ovarian) of 266 nM, a GI50 (CAKI-1 renal) of under 10 nM and a TGI (CAKI-1 renal) of 24400 nM. It also gave a GI50 (HCT-15 colon) of under 10 nM and a TGI (HCT-15 colon) of 63.2 nM.
